In one assay the target is T1, IRAK1 (Homo sapiens, UniProt P51617).
T1 construct: purchased Reaction Biology (RBC HotSpot Kinase Assay)
Briefly: RBC HotSpot Kinase Assay, IRAK1. It is filed as biochemical. The essentials: (§1)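 Radiometric filter-binding (HotSpot) activity assay on isolated recombinant kinase, possibly truncated or catalytic domain only, in 20 mM Hepes pH 7.5, 10 mM MgCl2, 1 mM EGTA, 2 mM DTT, 1% DMSO. Compound preincubated 20 min with kinase and substrate, then ^33P-ATP added. Reaction 2 h at room temperature, read by P81 filter binding.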

Assay [1] has as its target T2, IRAK4 (Homo sapiens, UniProt Q9NWZ3).
T2 sequence (Q9NWZ3 1-460): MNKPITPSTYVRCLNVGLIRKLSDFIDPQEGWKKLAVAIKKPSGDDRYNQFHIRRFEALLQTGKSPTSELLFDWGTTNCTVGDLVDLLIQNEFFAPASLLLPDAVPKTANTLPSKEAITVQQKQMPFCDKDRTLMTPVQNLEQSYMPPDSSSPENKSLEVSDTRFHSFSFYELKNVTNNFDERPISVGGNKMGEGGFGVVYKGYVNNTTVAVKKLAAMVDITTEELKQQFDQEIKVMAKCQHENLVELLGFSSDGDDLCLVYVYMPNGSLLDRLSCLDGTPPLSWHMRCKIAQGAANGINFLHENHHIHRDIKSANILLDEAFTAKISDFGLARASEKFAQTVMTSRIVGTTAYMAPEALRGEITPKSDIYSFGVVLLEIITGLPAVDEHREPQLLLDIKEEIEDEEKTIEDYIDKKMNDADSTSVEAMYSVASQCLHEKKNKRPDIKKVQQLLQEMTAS
The experiment in a line: RBC HotSpot Kinase Assay, IRAK4. The assay is classed as biochemical. Details: purchased Reaction Biology (RBC HotSpot Kinase Assay). The essentials:
as §1

The target in assay [2] is T2, IRAK4. Briefly: Reaction Biology NanoBRET target engagement assay, IRAK4. It is filed as cell-based. The conditions noted are these: transfected HEK-293 cells. The source says: The NanoBRET assay measures kinase engagement in real time in the context of the intact cell. Unlike the previously described biochemical kinase assay methodologies in Examples 26-27, the NanoBRET assay measures the binding and activity characteristics under equilibrium conditions using full-length kinases in the presence of cellular concentrations of ATP in live, uncompromised cells. As such, the assay provides a more relevant assessment of kinase potency and selectivity that would be expected to be observed in the native cellular environment, where potency is often considerably lower than that observed in the isolated biochemical assays (Vasta, J. D. et al., (2018) Cell Chem. Biol. 25, 206-214). The assay uses a Kinase-NanoLuc® fusion vector expressing a kinase protein to which a luciferase tag has been added, a cell-permeant fluorescent NanoBRET™ tracer, a NanoLuc® substrate, and an extracellular NanoLuc® inhibitor. Upon expression of the luciferase-tagged kinase, cells will produce a strong BRET signal only in the presence of the NanoBRET™ tracer. The extracellular NanoLuc® inhibitor ensures that the BRET signal observed emanates only from live cells. Because the BRET signal has tight distance constraints, addition of the test compound will decrease the BRET signal if the compound competes with the NanoBRET™ tracer for binding to the kinase domain. Under the appropriate tracer conditions established by the manufacturer, quantitative intracellular affinity and relative potency can then be determined using Mass Action model equations.
HEK-293 cells were purchased from ATCC. FuGENEHD Transfection Reagent, Kinase-NanoLucfusion plasmids, Transfection Carrier DNA, NanoBRETTracers and dilution buffer, NanoBRETNano-Glo Substrate, Extracellular NanoLucInhibitor were obtained from Promega.
Assays were conducted following Promega assay protocol with some modifications. HEK-293 Cells were transiently transfected with Kinase-NanoLucFusion Vector DNA by FuGENEHD Transfection Reagent. Testing compounds were delivered into 384 well assay plate by Echo 550 (LabcyteInc, Sunnyvale, CA). Transfected cells were harvested and mixed with NanoBRETTracer Reagent and dispensed into 384 well plates and incubated at 37° C. in 5% CO2 cell culture incubator for 1 hour. The NanoBRETNano-Glo Substrate plus Extracellular NanoLucInhibitor Solution were added into the wells of the assay plate and incubated for 2-3 minutes at room temperature. The donor emission wavelength (460 nm) and acceptor emission wavelength (600 nm) were measured in the EnVisionplate reader. The BRET Ratios were calculated. BRET Ratio=[(Acceptor sample÷Donor sample)−(Acceptor no-tracer control÷Donor no-tracer control)]. The IC50 values of compounds were calculated with Prism GraphPad program.
• 1). Cultivate HEK-293 cells (70-80% confluence) appropriately prior to assay. Trypsinize and collect HEK-293 cells. • 2). Prepare lipid: DNA complexes as follows: • a. Prepare a 10 μg/ml solution of DNA in Opti-MEM without serum that consists of the following ratios of carrier DNA and DNA encoding NanoLuc® fusion. 9.0 μg/mL of Transfection Carrier DNA, 1.0 μg/mL of NanoLuc fusion vector DNA and 1 mL of Opti-MEM without phenol red. Mix thoroughly. • b. Add 30 μl of FuGENE HD Transfection Reagent into each milliliter of DNA mixture to form lipid:DNA complex. • c. Mix by inversion 10 times. • d. Incubate at ambient temperature for 20 minutes to allow complexes to form. • 3). In a sterile, conical tube, mix 1 part of lipid:DNA complex with 20 parts of HEK-293 cells in suspension. Mix gently by inversion 5 times. • 4). Dispense cells+lipid:DNA complex into a sterile tissue culture dish and incubate for 22-24 hours. 2. Addition of Test Compounds (Dry Plate Shooting)
Each test compound is delivered from the compound source plate to the wells of 384-well white NBS plate by Echo 550.
• 1). […]

T1 sequence (P51617 whole entry): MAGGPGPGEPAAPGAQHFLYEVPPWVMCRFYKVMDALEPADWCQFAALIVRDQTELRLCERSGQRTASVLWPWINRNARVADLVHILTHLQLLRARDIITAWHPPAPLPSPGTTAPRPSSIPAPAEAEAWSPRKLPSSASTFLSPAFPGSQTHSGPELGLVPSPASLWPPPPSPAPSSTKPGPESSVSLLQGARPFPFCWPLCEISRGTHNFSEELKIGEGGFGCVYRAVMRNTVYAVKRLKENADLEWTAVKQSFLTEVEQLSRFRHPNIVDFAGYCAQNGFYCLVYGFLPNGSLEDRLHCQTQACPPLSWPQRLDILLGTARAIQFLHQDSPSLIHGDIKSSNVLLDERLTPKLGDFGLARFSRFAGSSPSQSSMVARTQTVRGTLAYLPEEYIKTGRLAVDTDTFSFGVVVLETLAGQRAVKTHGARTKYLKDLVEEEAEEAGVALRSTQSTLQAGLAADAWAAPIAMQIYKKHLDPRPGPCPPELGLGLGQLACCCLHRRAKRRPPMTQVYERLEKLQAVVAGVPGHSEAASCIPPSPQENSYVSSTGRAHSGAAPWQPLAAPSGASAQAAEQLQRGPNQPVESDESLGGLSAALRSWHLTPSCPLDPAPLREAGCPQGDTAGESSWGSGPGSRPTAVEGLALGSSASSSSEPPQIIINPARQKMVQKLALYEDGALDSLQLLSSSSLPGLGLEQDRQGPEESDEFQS

As to `COc1cc2ncc(-c3cccc(N[C@H]4CNC[C@@H]4F)n3)n2nc1C(C)(O)C(F)(F)F` (single isomer, unassigned; fast-eluting) [Compound 133], the values for the IC50 against IRAK1, on IRAK4 [1] and on IRAK4 [2] were 3320 nM, below 0.5 nM and 98 nM, respectively.

Take `F[C@H]1CNC[C@@H]1Nc1cccc(-c2cnc3ccc(-c4cnn5ccccc45)nn23)n1` [Compound 9, N-((3S,4S)-4-fluoropyrrolidin-3-yl)-6-(6-(pyrazolo[1,5-a]pyridin-3-yl)imidazo[1,2-b]pyridazin-3-yl)pyridin-2-amine]: the IC50 at IRAK1 came out at 81 nM; on IRAK4 [1], 7 nM; at IRAK4 [2], 54 nM.

Regarding `c1cc(N[C@@H]2CCCNC2)nc(-c2cnc3ccc(-c4cnn5ccccc45)nn23)c1` [Compound 19, (R)-N-(piperidin-3-yl)-6-(6-(pyrazolo[1,5-a]pyridin-3-yl)imidazo[1,2-b]pyridazin-3-yl)pyridin-2-amine], the IC50 amounted to 194 nM on IRAK1, 3 nM against IRAK4 [1] and 511 nM against IRAK4 [2].

For the compound `COc1cc2ncc(-c3cccc(N[C@H]4CNC[C@@H]4F)n3)n2nc1C1CC1` [Compound 96, 6-(6-cyclopropyl-7-methoxyimidazo[1,2-b]pyridazin-3-yl)-N-((3S,4S)-4-fluoropyrrolidin-3-yl)pyridin-2-amine], the values for the IC50 on IRAK1, on IRAK4 [1] and on IRAK4 [2] were 153 nM, 3 nM and 2 nM, respectively.

With `COc1cc2ncc(-c3cccc(N[C@@H]4CCNC4)n3)n2nc1C1CC1` [Compound 97, (R)-6-(6-cyclopropyl-7-methoxyimidazo[1,2-b]pyridazin-3-yl)-N-(pyrrolidin-3-yl)pyridin-2-amine], the figures for the IC50 against IRAK1 and against IRAK4 [1] were 253 nM and 2 nM, respectively.

Consider `COc1cc2ncc(-c3cccc(N[C@H]4CNC[C@@H]4C(F)(F)F)n3)n2nc1C1CC1` [Compound 99, 6-(6-cyclopropyl-7-methoxyimidazo[1,2-b]pyridazin-3-yl)-N-((3R,4S)-4-(trifluoromethyl)pyrrolidin-3-yl)pyridin-2-amine], for which the values for the IC50 against IRAK1, on IRAK4 [1] and on IRAK4 [2] were 821 nM, 0.5 nM and 3 nM, respectively.

Regarding `COc1cc2ncc(-c3cccc(N[C@H]4CNCC[C@@H]4F)n3)n2nc1C1CC1` [Compound 102, 6-(6-cyclopropyl-7-methoxyimidazo[1,2-b]pyridazin-3-yl)-N-((3S,4S)-4-fluoropiperidin-3-yl)pyridin-2-amine], the values for the IC50 against IRAK1, at IRAK4 [1] and at IRAK4 [2] were 109 nM, 1 nM and 2 nM, respectively.

Turning to `COc1cc2ncc(-c3nc(N[C@@H]4CCCNC4)c(F)cc3F)n2nc1C1CC1` [Compound 106, (R)-6-(6-cyclopropyl-7-methoxyimidazo[1,2-b]pyridazin-3-yl)-3,5-difluoro-N-(piperidin-3-yl)pyridin-2-amine], the IC50 on IRAK1 is 15 nM; against IRAK4 [1] it was 0.8 nM; at IRAK4 [2], below 0.5 nM.

For the compound `COc1cc2ncc(-c3nc(N[C@H]4CNC[C@@H]4F)c(F)cc3F)n2nc1C1CC1` [Compound 107, 6-(6-cyclopropyl-7-methoxyimidazo[1,2-b]pyridazin-3-yl)-3,5-difluoro-N-((3S,4S)-4-fluoropyrrolidin-3-yl)pyridin-2-amine], the IC50 against IRAK1 is 3 nM; at IRAK4 [1] it was below 0.5 nM; on IRAK4 [2], below 0.5 nM.

Regarding `COc1cc2ncc(-c3nc(N[C@H]4CNCC[C@@H]4F)c(F)cc3F)n2nc1C1CC1` [Compound 108, 6-(6-cyclopropyl-7-methoxyimidazo[1,2-b]pyridazin-3-yl)-3,5-difluoro-N-((3S,4S)-4-fluoropiperidin-3-yl)pyridin-2-amine], the figures for the IC50 on IRAK1, on IRAK4 [1] and against IRAK4 [2] were 5 nM, 0.6 nM and below 0.5 nM, respectively.

With `COc1cc2ncc(-c3nc(N[C@H]4CNC[C@@H]4F)c(F)cc3F)n2nc1C(C)(C)O` [Compound 126, 2-(3-(3,5-difluoro-6-(((3S,4S)-4-fluoropyrrolidin-3-yl)amino)pyridin-2-yl)-7-methoxyimidazo[1,2-b]pyridazin-6-yl)propan-2-ol], the figures for the IC50 at IRAK1, at IRAK4 [1] and on IRAK4 [2] were 135 nM, 4 nM and 7 nM, respectively.

`COc1cc2ncc(-c3nc(N[C@@H]4CCCNC4)c(F)cc3F)n2nc1C(C)(C)O` [Compound 127, (R)-2-(3-(3,5-difluoro-6-(piperidin-3-ylamino)pyridin-2-yl)-7-methoxyimidazo[1,2-b]pyridazin-6-yl)propan-2-ol]: the IC50 was 146 nM against IRAK1, 16 nM against IRAK4 [1] and 30 nM on IRAK4 [2].

As to `COc1cc2ncc(-c3nc(N[C@H]4CNCC[C@@H]4F)c(F)cc3F)n2nc1C(C)(C)O` [Compound 128, 2-(3-(3,5-difluoro-6-(((3S,4S)-4-fluoropiperidin-3-yl)amino)pyridin-2-yl)-7-methoxyimidazo[1,2-b]pyridazin-6-yl)propan-2-ol], the IC50 was 129 nM on IRAK1, 6 nM against IRAK4 [1] and 15 nM against IRAK4 [2].

The values are drawn from patent US12534469B2 (CHILDREN'S HOSPITAL MEDICAL CENTER, priority 2020, dated 2026).
